Values quoted from earlier work, collected in publication PMC3834896.
Where two headings read alike, the source gives them in different places.

Test: not told

SMILES	log partition n-octanol / PBS or water [log10]	log partition n-octanol / PBS or water (not told) [log10]
CCCCCCCCN1CCCC1=O	3.0	–
CCCCN1CCCCCC1=O	–	1.8
CCCCCCC(=O)N(C)C	–	1.9
CCCCCCCCCC(=O)N1CC(O)CC1C(=O)NCC (centres unmarked)	–	2.9
CCCCCCCCN1CCCCCC1=O	–	4.0
CCCCCCCC(=O)N(C)C	–	2.6
CCCCCCCCN1CCCCC1=O	3.4	–
CCCCCCN1CCCCC1=O	2.6	–
CCCCN1CCCCC1=O	1.4	–
CCCCCCN1CCCC1=O	2.1	–
CCCCCC(=O)N(C)C	–	1.4
CCCCCCCCCCCCN1CCCCCC1=O	–	6.3
CCCCCCCCC(=O)N(C)C	–	1.9
CCCCCCN1CCCCCC1=O	–	2.9
CCCCCCCCCCN1CCCC1=O	4.1	–
CCCCN1CCCC1=O	1.02	–
CCCCCCCCCCCCN1CCCC1=O	4.9	–
